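Here, GI50 denotes the concentration required for 50% inhibition of growth. Definition used: TGI = concentration required for complete inhibition of growth.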
Columns and labels:
Assay in all cases: inhibition of tumour cell growth, NCI panel, 384-well format
UO-31 renal = test system: UO-31 renal
BT-549 breast = test system: BT-549 breast
ACHN renal = test system: ACHN renal
HOP-92 NSCLC = test system: HOP-92 NSCLC
LOX IMVI melanoma = test system: LOX IMVI melanoma
CCRF-CEM leukemia = test system: CCRF-CEM leukemia
MDA-MB-468 breast = test system: MDA-MB-468 breast
SK-MEL-28 melanoma = test system: SK-MEL-28 melanoma
NCI/ADR-RES ovarian = test system: NCI/ADR-RES ovarian
KM12 colon = test system: KM12 colon
RXF 393 renal = test system: RXF 393 renal
IGROV1 ovarian = test system: IGROV1 ovarian
HT29 colon = test system: HT29 colon
SK-MEL-5 melanoma = test system: SK-MEL-5 melanoma
TK-10 renal = test system: TK-10 renal
SF-295 CNS = test system: SF-295 CNS
NCI-H460 NSCLC = test system: NCI-H460 NSCLC
HOP-62 NSCLC = test system: HOP-62 NSCLC
SN12C renal = test system: SN12C renal
M14 melanoma = test system: M14 melanoma
NCI-H226 lung = test system: NCI-H226 lung
PC-3 prostate = test system: PC-3 prostate
UACC-257 melanoma = test system: UACC-257 melanoma
A549 NSCLC = test system: A549 NSCLC
CAKI-1 renal = test system: CAKI-1 renal
SNB-19 CNS = test system: SNB-19 CNS
A498 renal = test system: A498 renal
HL-60(TB) leukemia = test system: HL-60(TB) leukemia
NCI-H322M lung = test system: NCI-H322M lung
MOLT-4 leukemia = test system: MOLT-4 leukemia
SR leukemia = test system: SR leukemia
HS 578T breast = test system: HS 578T breast
OVCAR-5 ovarian = test system: OVCAR-5 ovarian
MDA-MB-231 breast = test system: MDA-MB-231 breast
UACC-62 melanoma = test system: UACC-62 melanoma
SK-OV-3 ovarian = test system: SK-OV-3 ovarian
786-0 renal = test system: 786-0 renal
MALME-3M melanoma = test system: MALME-3M melanoma
RPMI-8226 leukemia = test system: RPMI-8226 leukemia
SW-620 colon = test system: SW-620 colon
NCI-H522 lung = test system: NCI-H522 lung
SF-539 CNS = test system: SF-539 CNS
NCI-H23 lung = test system: NCI-H23 lung
HCT-15 colon = test system: HCT-15 colon
DU-145 prostate = test system: DU-145 prostate
MCF7 breast = test system: MCF7 breast
K-562 leukemia = test system: K-562 leukemia
HCC-2998 colon = test system: HCC-2998 colon
OVCAR-4 ovarian = test system: OVCAR-4 ovarian
SNB-75 CNS = test system: SNB-75 CNS
OVCAR-3 ovarian = test system: OVCAR-3 ovarian
MDA-MB-435 melanoma = test system: MDA-MB-435 melanoma
EKVX NSCLC = test system: EKVX NSCLC
COLO 205 colon = test system: COLO 205 colon
T-47D breast = test system: T-47D breast
SF-268 CNS = test system: SF-268 CNS
OVCAR-8 ovarian = test system: OVCAR-8 ovarian

CCN(CC)CCCC(C)Nc1c2ccc(Cl)cc2nc2ccc(OC)cc12 (centres undefined)
GI50 (UO-31 renal): 1850 nM | TGI (UO-31 renal): 3730 nM | GI50 (BT-549 breast): 1500 nM | TGI (BT-549 breast): 2840 nM | GI50 (ACHN renal): 1040 nM | TGI (ACHN renal): 2440 nM | GI50 (HOP-92 NSCLC): 520 nM | TGI (HOP-92 NSCLC): 1820 nM | GI50 (LOX IMVI melanoma): 1390 nM | TGI (LOX IMVI melanoma): 2700 nM | GI50 (CCRF-CEM leukemia): 609 nM | TGI (CCRF-CEM leukemia): 1660 nM | GI50 (MDA-MB-468 breast): 322 nM | TGI (MDA-MB-468 breast): 1230 nM | GI50 (SK-MEL-28 melanoma): 1870 nM | TGI (SK-MEL-28 melanoma): 3270 nM | GI50 (NCI/ADR-RES ovarian): 1550 nM | TGI (NCI/ADR-RES ovarian): 2940 nM | GI50 (KM12 colon): 1370 nM | TGI (KM12 colon): 3130 nM | GI50 (RXF 393 renal): 668 nM | TGI (RXF 393 renal): 1980 nM | GI50 (IGROV1 ovarian): 1890 nM | TGI (IGROV1 ovarian): 3720 nM | GI50 (HT29 colon): 1330 nM | TGI (HT29 colon): 2630 nM | GI50 (SK-MEL-5 melanoma): 1960 nM | TGI (SK-MEL-5 melanoma): 3380 nM | GI50 (TK-10 renal): 1950 nM | TGI (TK-10 renal): 3690 nM | GI50 (SF-295 CNS): 1740 nM | TGI (SF-295 CNS): 3140 nM | GI50 (NCI-H460 NSCLC): 1100 nM | TGI (NCI-H460 NSCLC): 2310 nM | GI50 (HOP-62 NSCLC): 1100 nM | TGI (HOP-62 NSCLC): 2440 nM | GI50 (SN12C renal): 1410 nM | TGI (SN12C renal): 2860 nM | GI50 (M14 melanoma): 1790 nM | TGI (M14 melanoma): 3180 nM | GI50 (NCI-H226 lung): 1330 nM | TGI (NCI-H226 lung): 2800 nM | GI50 (PC-3 prostate): 1780 nM | TGI (PC-3 prostate): 3380 nM | GI50 (UACC-257 melanoma): 1890 nM | TGI (UACC-257 melanoma): 3300 nM | GI50 (A549 NSCLC): 1510 nM | TGI (A549 NSCLC): 2910 nM | GI50 (CAKI-1 renal): 1370 nM | TGI (CAKI-1 renal): 2740 nM | GI50 (SNB-19 CNS): 1940 nM | TGI (SNB-19 CNS): 4030 nM | GI50 (A498 renal): 880 nM | TGI (A498 renal): 2110 nM | GI50 (HL-60(TB) leukemia): 1640 nM | TGI (HL-60(TB) leukemia): 3000 nM | GI50 (NCI-H322M lung): 1290 nM | TGI (NCI-H322M lung): 2630 nM | GI50 (MOLT-4 leukemia): 212 nM | TGI (MOLT-4 leukemia): 357 nM | GI50 (SR leukemia): 401 nM | TGI (SR leukemia): 1320 nM | GI50 (HS 578T breast): 1710 nM | TGI (HS 578T breast): 3080 nM | GI50 (OVCAR-5 ovarian): 1920 nM | TGI (OVCAR-5 ovarian): 4160 nM | GI50 (MDA-MB-231 breast): 1180 nM | TGI (MDA-MB-231 breast): 2560 nM | GI50 (UACC-62 melanoma): 1690 nM | TGI (UACC-62 melanoma): 3060 nM | GI50 (SK-OV-3 ovarian): 1200 nM | TGI (SK-OV-3 ovarian): 2700 nM | GI50 ([…]-0 renal): 1180 nM | TGI (786-0 renal): 2440 nM | GI50 (MALME-3M melanoma): 1600 nM | TGI (MALME-3M melanoma): 2950 nM | GI50 (RPMI-8226 leukemia): 1490 nM | TGI (RPMI-8226 leukemia): 2810 nM | GI50 (SW-620 colon): 1390 nM | TGI (SW-620 colon): 2940 nM | GI50 (NCI-H522 lung): 1470 nM | TGI (NCI-H522 lung): 2800 nM | GI50 (SF-539 CNS): 1120 nM | TGI (SF-539 CNS): 2330 nM | GI50 (NCI-H23 lung): 1600 nM | TGI (NCI-H23 lung): 2960 nM | GI50 (HCT-15 colon): 1060 nM | TGI (HCT-15 colon): 2300 nM | GI50 (DU-145 prostate): 1720 nM | TGI (DU-145 prostate): 3530 nM | GI50 (MCF7 breast): 1410 nM | TGI (MCF7 breast): 3200 nM | GI50 (K-562 leukemia): 1080 nM | TGI (K-562 leukemia): 2290 nM | GI50 (HCC-2998 colon): 985 nM | TGI (HCC-2998 colon): 2150 nM | GI50 (OVCAR-4 ovarian): 1550 nM | TGI (OVCAR-4 ovarian): 2920 nM | GI50 (SNB-75 CNS): 1330 nM | TGI (SNB-75 CNS): 2610 nM | GI50 (OVCAR-3 ovarian): 1760 nM | TGI (OVCAR-3 ovarian): 3360 nM | GI50 (MDA-MB-435 melanoma): 1750 nM | TGI (MDA-MB-435 melanoma): 3140 nM | GI50 (EKVX NSCLC): 1330 nM | TGI (EKVX NSCLC): 2820 nM | GI50 (COLO 205 colon): 1310 nM | TGI (COLO 205 colon): 2600 nM | GI50 (T-47D breast): 1640 nM | TGI (T-47D breast): 3070 nM | GI50 (SF-268 CNS): 1640 nM | TGI (SF-268 CNS): 3060 nM | GI50 (OVCAR-8 ovarian): 1070 nM | TGI (OVCAR-8 ovarian): 2260 nM
